Patent publication US20210395651A1, “COMPOUNDS STABILIZING HYDROLASES IN LIQUIDS” (BASF SE, priority 2018, published 2021)

Molecular target: T1, Lipolase® 100L (Thermomyces lanuginosus, UniProt O59952)
T1 construct: purchased Sigma-Aldrich
T1 sequence (O59952 23-291): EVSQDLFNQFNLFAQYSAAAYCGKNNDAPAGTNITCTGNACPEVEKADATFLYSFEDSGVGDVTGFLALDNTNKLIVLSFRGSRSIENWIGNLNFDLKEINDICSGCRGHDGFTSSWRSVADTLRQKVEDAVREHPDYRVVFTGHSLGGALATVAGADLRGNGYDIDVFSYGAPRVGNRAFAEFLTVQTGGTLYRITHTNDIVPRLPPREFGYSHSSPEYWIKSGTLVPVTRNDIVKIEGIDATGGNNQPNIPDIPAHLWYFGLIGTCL
Assay: Lipase storage stability in liquid formulations at 37° C. (pNP-valerate activity)
Format: biochemical, Thermomyces lanuginosa
Conditions: for lipase activity, 3 d: 3 d storage at 37° C.; for lipase activity, 7 d: 7 d storage at 37° C.; for lipase activity, 14 d: 14 d storage at 37° C.; for lipase activity, 21 d: 21 d storage at 37° C.; for lipase activity, 28 d: 28 d storage at 37° C.; for lipase activity, 35 d: 35 d storage at 37° C.; for lipase activity, T0: relative to 100% value of reference formulation at time 0
Protocol: The storage stability of Lipase was assessed at 37° C.
Base test formulations were manufactured by making base formulations I to V by mixing the components according to Table 1.
The respective component (a) or comparative compound was added, if applicable, to the respective base formulation in amounts as indicated in Table 1.
Lipase used: Lipolase® 100L (CAS-No. 9001-62-1, EC-No. 232-619-9) was purchased from Sigma-Aldrich.
The amount of lipase as provided in Table 1 refers to active protein.
Water was added to accomplish the balance to 100.
Lipolase activity at certain points in time as indicated in Table 2 was be determined by employing pNitrophenol-valerate (2.4 mM pNP-C5 in 100 mM Tris pH 8.0, 0.01% Triton X100) as a substrate. The absorption at 405 nm was measured at 20° C. every 30 seconds over 5 minutes.
The slope (absorbance increase at 405 nm per minute) of the time dependent absorption-curve is directly proportional to the activity of the lipase.
The […] activity values provided in Table 2 were calculated referring to the 100% value determined in the reference formulation at the time 0.
The nomenclature of formulations is as follows: the Roman number before the full stop characterizes the base formulation, the Arabian number the type of compound (A.# compound according to invention (component (a)); (B.#) comparative compound).

[1] = base formulation I. (Lipolase 0.2 wt%, tested compound 2.5 wt%)
[2] = base formulation III. (Lipolase 0.2 wt%, tested compound 2.0 wt%)
[3] = base formulation IV. (Lipolase 0.2 wt%, tested compound 2.0 wt%)
[4] = base formulation V. (Lipolase 0.2 wt%, tested compound 2.0 wt%)
[5] = base formulation II. (Lipolase 0.2 wt%, tested compound 2.5 wt%)

SMILES | lipase activity, 3 d [1] [%] | lipase activity, 7 d [1] [%] | lipase activity, 14 d [1] [%] | lipase activity, 21 d [1] [%] | lipase activity, 28 d [1] [%] | lipase activity, 35 d [1] [%] | lipase activity, T0 [1] [%] | lipase activity, 3 d [3] [%] | lipase activity, 7 d [3] [%] | lipase activity, 14 d [3] [%] | lipase activity, 21 d [3] [%] | lipase activity, 28 d [3] [%] | lipase activity, 35 d [3] [%] | lipase activity, T0 [3] [%] | lipase activity, 3 d [4] [%] | lipase activity, 7 d [4] [%] | lipase activity, 14 d [4] [%] | lipase activity, 21 d [4] [%] | lipase activity, 28 d [4] [%] | lipase activity, 35 d [4] [%] | further results
CCOC(=O)C(=O)OCC [B.3, diethyloxalate, reference compound] | 90 | 80 | 70 | 54 | 45 | 37 | 97 | 93 | 86 | 74 | 63 | 51 | 46 | 98 | 92 | 85 | 71 | 65 | 56 | 46 | lipase activity, 3 d [2]: 94%; lipase activity, 7 d [2]: 79%; lipase activity, 14 d [2]: 69%; lipase activity, 21 d [2]: 50%; lipase activity, 28 d [2]: 40%; lipase activity, 35 d [2]: 32%; lipase activity, T0 [2]: 98%; lipase activity, T0 [4]: 97%
O=C([O-])CC(O)(CC(=O)[O-])C(=O)[O-].[Na+].[Na+].[Na+] [B.2, citric acid trisodiumsalt, reference compound] | 90 | 81 | 68 | 57 | 47 | 31 | 97 | 90 | 81 | 68 | 55 | 40 | 34 | 96 | – | – | – | – | – | – | lipase activity, 3 d [5]: 95%; lipase activity, 7 d [5]: 82%; lipase activity, 14 d [5]: 63%; lipase activity, 21 d [5]: 56%; lipase activity, 28 d [5]: 41%; lipase activity, 35 d [5]: 34%; lipase activity, T0 [5]: 98%; lipase activity, 3 d [2]: 94%; lipase activity, 7 d [2]: 80%; lipase activity, 14 d [2]: 69%; lipase activity, 21 d [2]: 53%; lipase activity, 28 d [2]: 44%; lipase activity, 35 d [2]: 37%; lipase activity, T0 [2]: 101%
CCCCOC(=O)CC(CC(=O)OCCCC)(OC(C)=O)C(=O)OCCCC [A.4, Acetyltributylcitrate] | 104 | 99 | 93 | 88 | 83 | 78 | 102 | 97 | 95 | 93 | 89 | 86 | 83 | 101 | 100 | 94 | 90 | 85 | 80 | 74 | lipase activity, T0 [4]: 101%
CCCCOC(=O)CC(O)(CC(=O)OCCCC)C(=O)OCCCC [A.3, Tributylcitrate] | – | – | – | – | – | – | – | 100 | 96 | 95 | 90 | 88 | 85 | 99 | 97 | 92 | 88 | 83 | 80 | 73 | lipase activity, T0 [4]: 101%
O=C(O)CC(O)(CC(=O)O)C(=O)O [B.1, citric acid, reference compound] | 89 | 81 | 73 | 61 | 50 | 29 | 100 | 95 | 82 | 70 | 58 | 43 | 36 | 97 | 93 | 86 | 74 | 63 | 52 | 43 | lipase activity, 3 d [2]: 92%; lipase activity, 7 d [2]: 78%; lipase activity, 14 d [2]: 70%; lipase activity, 21 d [2]: 51%; lipase activity, 28 d [2]: 39%; lipase activity, 35 d [2]: 30%; lipase activity, T0 [2]: 102%; lipase activity, T0 [4]: 98%
